# Source: patent publication US10261017B2, “Methods for detecting and categorizing skin sensitizers” (University of Mississippi, priority 2014, dated 2019)
# Where a name gives a salt, the structure may show the parent alone. Read-outs that look alike come from different tables or passages of the source.
# Tests used:
# [1] = Microplate spectrophotometric method (DCYA assay), fluorescence end-point; conditions: for DCYA 100-RI: RI = reactivity index, 2 equiv. electrophile, pH 10 buffer; for DCYA binary classification: FN: false negative; for DCYA binary classification: FP: false positive; for DCYA binary classification: TN: true negative; for DCYA binary classification: TP: true positive, positive if 100-RI <95; for DCYA assay reactivity / classification in words: microplate spectrophotometric method
# thiol peptide [2] = conditions: cited from earlier work; for Cys-DPRA % Pept. remain.: reported results from the literature; for Cys-DPRA, percentage of thiol peptide depleted: adopted from the literature; for Cys-DPRA reactivity in words: literature
# [3] = system: ARE-dependent gene activity in a recombinant cell line; conditions: cited from earlier work
# [4] = cited from earlier work; for LLNA EC3: reported results (Table 7); for LLNA (EC3): effective concentration, published literature (Table 1); for LLNA Classification: published literature
# thiol peptide [5] = assay: Cys-DPRA (Direct Peptide Reactivity Assay), literature data; conditions: for Cys-DPRA binary classification: FN: false negative; for Cys-DPRA binary classification: FP: false positive; for Cys-DPRA binary classification: TN: true negative; for Cys-DPRA binary classification: TP: true positive
# [6] = NMR method: depletion of electrophile signal on reaction with DCYA; conditions: for Conversion at t30 (depletion of electrophile signal): at 30 min; for Conversion at t30 (depletion of electrophile signal) / NMR Method conversion: 1 equiv. DCYA; for NMR Classification: based on depletion of electrophile signal at 30 min; for NMR Method conversion: conversion of test chemical at 90 min, CDCl3; for Conversion rate: 0.1 M DCYA, 0.1 M L-carvone
# Source text: The described example can be applied to pure chemicals and mixtures. The method includes the acquisition of at least one NMR spectrum, mixing an electrophile and a nucleophile to acquire an array of control spectra and an addition of catalyst to record an array of reaction spectra. It also includes the quantification of at least one signal and the comparison of the signal with a control and the classification of the reaction based on the depletion of potential sensitizer based on the quantified residual signal.
# 2,5-Dimethylfuran was used as internal standard. When necessary, characterization of the product(s) formed during the reaction(s) was performed by homonuclear ^1H connectivities using 2D-COSY experiments. […] Two- and three bond ^1H-^13C connectivities were determined by gradient-HMBC experiments in which the evolution period for long-range ^1H-^13C coupling constants was optimized for a ^2,3JC,H of 8 Hz. Through-space ^1H connectivities were determined using a NOESY experiment with a mixing time of 0.450 s. […] Toronto, Canada].
# In a 3 mm NMR tube, 1 volume of DCYA (100) mM in CDCl3) was mixed with one volume of sensitizer (100 mM in CDCl3) to give a final concentration of 50 mM for both DCYA and the sensitizer. Control ^1H NMR spectra (reference spectra) were recorded at regular intervals of for a minimum of 5 min. […] All spectra were recorded at constant temperature. All experiments were conducted using the manufacturer's standard presaturation pulse programs and experimental conditions were chosen as explained in NMR spectroscopy section. The progress of the reaction was followed by the diminished peak areas of the resonances for the signal of interest. The spectra were phased, referenced, and integrated using NMR data elaboration software. The structural characterizations of the resulting adducts were confirmed by conducting additional 2D-NMR experiments when necessary.
# Covalent reaction of DCYA with carvone is dependent on the activation of the nucleophilic group (ex. sulfhydryl group to the reactive thio-anion) under basic conditions. This reaction is strongly dependent on the nature of the nucleophile and may be modulated by careful choice of the model nucleophile and the reaction conditions.
# The control spectra are used as reference spectra (FIG. 3A). All the spectra were subjected to automatic phase and baseline correction using a Bernstein polynomial fit (order 3). After these two steps, all the spectra were integrated over the areas of interest. […] Both vinylic and adduct peak areas were normalized relative to the internal standard signal peaks. […] The concentrations of both electrophile and adduct were then plotted as percentage against time (in minutes). (FIG. 5).
Compound,DCYA 100-RI [1],DCYA binary classification: FN [1],DCYA binary classification: FP [1],DCYA binary classification: TN [1],DCYA binary classification: TP [1],Cys-DPRA binary classification: FN (thiol peptide [5]),Cys-DPRA binary classification: FP (thiol peptide [5]),Cys-DPRA binary classification: TN (thiol peptide [5]),Cys-DPRA % Pept. remain. (thiol peptide [2]) [%],KeratinoSens ™ EC3 ([3]; reported results (Table 7)) [µM],LLNA EC3 [4] [%],Cys-DPRA binary classification: TP (thiol peptide [5]),LLNA Classification [4],also measured
"O=C1OC(=O)C2CCCCC12 (stereo not shown) [1,2-Cyclohexanedicarboxylic anhydride]",104.6,–,–,–,–,–,–,–,84.3,>2000,0.84,–,–,–
C=CC(=O)OCC [Ethyl acrylate],−0.7,0,0,0,1,0,0,0,3.6,231.19,28,1,Weak,"Cys-DPRA, percentage of thiol peptide depleted (thiol peptide [2]): 96.4%; Conversion at t30 (depletion of electrophile signal) [6]: 92%; NMR Classification [6]: Strong; NMR Method conversion ([6]; 0.1 equiv. DBN): 93%; KeratinoSens ™ EC3 ([3]; published literature (Table 1)): 231.19 µM; LLNA (EC3) [4]: 28%"
C=C(C)C1CC=C(C=O)CC1 (stereo not shown) [Perillaldehyde],95.8,1,0,0,0,0,0,0,68.1,61.85,8.1,1,Moderate,"Cys-DPRA, percentage of thiol peptide depleted (thiol peptide [2]): 31.9%; NMR assay reactivity / classification in words [6]: moderate/low electrophilic behavior; Conversion at t30 (depletion of electrophile signal) [6]: 28%; NMR Classification [6]: Weak-moderate; NMR Method conversion ([6]; 0.1 equiv. DBN): 28%; KeratinoSens ™ EC3 ([3]; published literature (Table 1)): 61.85 µM; LLNA (EC3) [4]: 8.1%"
"CCC=CC=CC=O [2,4-Heptadienal]",54.1,0,0,0,1,0,0,0,2.7,21.91,4,1,–,–
"O=[N+]([O-])c1ccc(Cl)c([N+](=O)[O-])c1 [1-Chloro-2,4-dinitrobenzene]",–,1,0,0,0,0,0,0,0,3.89,–,1,–,–
CCCCBr [1-Bromobutane],–,0,0,1,0,0,1,0,–,>2000,–,0,–,DCYA adduct after long incubation ([1]; after 24 h of incubation): minor DCYA adduct; DCYA assay reactivity / classification in words [1]: non-reactive; Cys-DPRA reactivity in words (thiol peptide [2]): minimal reaction
CC(C=O)Cc1ccc(C(C)(C)C)cc1 (stereo not shown) [Lilial],–,1,0,0,0,0,1,0,86,>2000,–,0,–,DCYA assay reactivity / classification in words [1]: non-reactive

# The next lines start with results.
DCYA 100-RI [1],DCYA binary classification: FN [1],DCYA binary classification: FP [1],DCYA binary classification: TN [1],DCYA binary classification: TP [1],Cys-DPRA binary classification: FN (thiol peptide [5]),Cys-DPRA binary classification: FP (thiol peptide [5]),Cys-DPRA binary classification: TN (thiol peptide [5]),Compound,Cys-DPRA % Pept. remain. (thiol peptide [2]) [%],KeratinoSens ™ EC3 ([3]; reported results (Table 7)) [µM],LLNA EC3 [4] [%],Cys-DPRA binary classification: TP (thiol peptide [5]),LLNA Classification [4],also measured
−8.84,0,0,0,1,0,0,0,CCOC(=O)/C=C\C(=O)OCC [Diethyl maleate],0,82.85,5.8,1,–,–
127.1,–,–,–,–,–,–,–,Oc1ccc(O)cc1 [p-Hydroquinone],16.7,51.29,0.11,–,Strong,"DCYA assay reactivity / classification in words [1]: non-reactive; Cys-DPRA, percentage of thiol peptide depleted (thiol peptide [2]): 83.3%; Cys-DPRA reactivity in words (thiol peptide [2]): non-reactive; NMR assay reactivity / classification in words [6]: almost unreactive; Conversion at t30 (depletion of electrophile signal) [6]: 5%; NMR Classification [6]: Non^$; NMR Method conversion ([6]; 0.1 equiv. DBN): 5%; KeratinoSens ™ EC3 ([3]; published literature (Table 1)): 51.29 µM; LLNA (EC3) [4]: 0.11%"
88.4,0,0,0,1,0,0,0,C=C(C)[C@@H]1CC=C(C)C(=O)C1 [L-Carvone],–,–,13,–,Moderate,"Cys-DPRA, percentage of thiol peptide depleted (thiol peptide [2]): 26.3^20%; Depletion ([6]; 0.05 equivalents DBN, chloroform): 23%; Depletion ([6]; 0.1 equivalents DBN, chloroform): 35%; Depletion ([6]; 0.2 equivalents DBN, chloroform): 28%; Conversion rate ([6]; DMSO, 0.1 equiv. DBN): 42%; Conversion rate ([6]; acetonitrile, 0.1 equiv. DBN): 47%; Reaction between DCYA and carvone ([6]; aqueous pH 10 buffer (5% v/v) in acetonitrile, after 90 minutes): 42%; Conversion at t30 (depletion of electrophile signal) [6]: 16%; NMR Classification [6]: Weak; NMR Method conversion ([6]; 0.1 equiv. DBN): 16%; Electrophile depletion ([6]; excess of DCYA, chloroform, 0.1 equiv. DBN): around 37%; Depletion ([6]; excess of electrophile, 2 equiv., chloroform, 0.1 equiv. DBN): 21%; Depletion ([6]; excess of electrophile, 4 equiv., chloroform, 0.1 equiv. DBN): 8%; KeratinoSens ™ EC3 ([3]; published literature (Table 1)): 258.71^20 μM"
105.0,–,–,–,–,–,–,–,OCC=Cc1ccccc1 [Cinnamyl alcohol],100,>2000,21,–,–,–
29.9,0,0,0,1,0,0,0,CCC/C=C/C=O [trans-2-Hexenal],2.1,374.57,5.5,1,moderate sensitizer,–
96.3,1,0,0,0,0,0,0,O=c1c(-c2ccccc2)c1-c1ccccc1 [Diphenyl cyclopropenone],1.2,1.84,0.003,1,–,–
90.3,0,0,0,1,0,0,0,"CC(=O)C(=O)CC(C)C [5-Methyl-2,3-hexanedione]",74.2,332.21,–,1,–,–
